Source: ChEMBL document CHEMBL1671662, “In vitro activities of telavancin and six comparator agents against anaerobic bacterial isolates” (2009)

Columns and labels:
Assay type in all cases: functional
[1] = tested on: Sutterella wadsworthensis; test: Antibacterial activity against Sutterella wadsworthensis by CLSI M11-A6 agar dilution method in presence of beta-lactamase inhibitor Sulbactam
Anaerococcus prevotii = test: Antibacterial activity against Anaerococcus prevotii by CLSI M11-A6 agar dilution method in presence of beta-lactamase inhibitor Sulbactam
Actinomyces naeslundii = test: Antibacterial activity against Actinomyces naeslundii by CLSI M11-A6 agar dilution method in presence of beta-lactamase inhibitor Sulbactam
[2] = tested on: Peptoniphilus asaccharolyticus; test: Antibacterial activity against Peptoniphilus asaccharolyticus by CLSI M11-A6 agar dilution method in presence of beta-lactamase inhibitor Sulbactam
[3] = tested on: Coprobacillus cateniformis; test: Antibacterial activity against Coprobacillus cateniformis by CLSI M11-A6 agar dilution method in presence of beta-lactamase inhibitor Sulbactam
Clostridium tertium = test: Antibacterial activity against Clostridium tertium by CLSI M11-A6 agar dilution method in presence of beta-lactamase inhibitor Sulbactam
Clostridium leptum = test: Antibacterial activity against Clostridium leptum by CLSI M11-A6 agar dilution method in presence of beta-lactamase inhibitor Sulbactam
Finegoldia magna = test: Antibacterial activity against Finegoldia magna by CLSI M11-A6 agar dilution method in presence of beta-lactamase inhibitor Sulbactam
Bifidobacterium breve = test: Antibacterial activity against Bifidobacterium breve by CLSI M11-A6 agar dilution method in presence of beta-lactamase inhibitor Sulbactam
Phocaeicola vulgatus = test: Antibacterial activity against Bacteroides vulgatus by CLSI M11-A6 agar dilution method in presence of beta-lactamase inhibitor Sulbactam
Prevotella corporis = test: Antibacterial activity against Prevotella corporis by CLSI M11-A6 agar dilution method in presence of beta-lactamase inhibitor Sulbactam
Clostridioides difficile = test: Antibacterial activity against Clostridium difficile by CLSI M11-A6 agar dilution method in presence of beta-lactamase inhibitor Sulbactam
[4] = tested on: Bifidobacterium adolescentis; test: Antibacterial activity against Bifidobacterium adolescentis by CLSI M11-A6 agar dilution method in presence of beta-lactamase inhibitor Sulbactam
Clostridium beijerinckii = test: Antibacterial activity against Clostridium beijerinckii by CLSI M11-A6 agar dilution method in presence of beta-lactamase inhibitor Sulbactam
[5] = tested on: Prevotella melaninogenica; test: Antibacterial activity against Prevotella melaninogenica by CLSI M11-A6 agar dilution method in presence of beta-lactamase inhibitor Sulbactam
Ruminococcus gnavus = test: Antibacterial activity against Ruminococcus gnavus by CLSI M11-A6 agar dilution method in presence of beta-lactamase inhibitor Sulbactam; settings: Mediterraneibacter gnavus
[6] = tested on: Clostridium celerecrescens; test: Antibacterial activity against Clostridium celerecrescens by CLSI M11-A6 agar dilution method in presence of beta-lactamase inhibitor Sulbactam; settings: Lacrimispora celerecrescens
Clostridium sp. = test: Antibacterial activity against Clostridium sp. by CLSI M11-A6 agar dilution method in presence of beta-lactamase inhibitor Sulbactam
[7] = tested on: Catenibacterium mitsuokai; test: Antibacterial activity against Catenibacterium mitsuokai by CLSI M11-A6 agar dilution method in presence of beta-lactamase inhibitor Sulbactam
[8] = tested on: Streptococcus constellatus; test: Antibacterial activity against Streptococcus constellatus by CLSI M11-A6 agar dilution method in presence of beta-lactamase inhibitor Sulbactam
Ruminococcus lactaris = test: Antibacterial activity against Ruminococcus lactaris by CLSI M11-A6 agar dilution method in presence of beta-lactamase inhibitor Sulbactam
Clostridium glycolicum = test: Antibacterial activity against Clostridium glycolicum by CLSI M11-A6 agar dilution method in presence of beta-lactamase inhibitor Sulbactam; settings: Terrisporobacter glycolicus
Hoylesella oralis = test: Antibacterial activity against Prevotella oralis by CLSI M11-A6 agar dilution method in presence of beta-lactamase inhibitor Sulbactam
Prevotella oris = test: Antibacterial activity against Prevotella oris by CLSI M11-A6 agar dilution method in presence of beta-lactamase inhibitor Sulbactam; settings: Segatella oris
Ruminococcus torques = test: Antibacterial activity against Ruminococcus torques by CLSI M11-A6 agar dilution method in presence of beta-lactamase inhibitor Sulbactam; settings: Mediterraneibacter torques
[9] = tested on: Clostridium paraputrificum; test: Antibacterial activity against Clostridium paraputrificum by CLSI M11-A6 agar dilution method in presence of beta-lactamase inhibitor Sulbactam
Thomasclavelia ramosa = test: Antibacterial activity against Clostridium ramosum by CLSI M11-A6 agar dilution method in presence of beta-lactamase inhibitor Sulbactam
Collinsella aerofaciens = test: Antibacterial activity against Colinsella aerofaciens by CLSI M11-A6 agar dilution method in presence of beta-lactamase inhibitor Sulbactam
Clostridium hathewayi = test: Antibacterial activity against Clostridium hathewayi by CLSI M11-A6 agar dilution method in presence of beta-lactamase inhibitor Sulbactam; settings: Hungatella hathewayi
[10] = tested on: Paraclostridium bifermentans; test: Antibacterial activity against Clostridium bifermentans by CLSI M11-A6 agar dilution method in presence of beta-lactamase inhibitor Sulbactam
Bifidobacterium dentium = test: Antibacterial activity against Bifidobacterium dentium by CLSI M11-A6 agar dilution method in presence of beta-lactamase inhibitor Sulbactam
[11] = tested on: Enterocloster clostridioformis; test: Antibacterial activity against Clostridium clostridioforme by CLSI M11-A6 agar dilution method in presence of beta-lactamase inhibitor Sulbactam
Fusobacterium mortiferum = test: Antibacterial activity against Fusobacterium mortiferum by CLSI M11-A6 agar dilution method in presence of beta-lactamase inhibitor Sulbactam
Hoylesella loescheii = test: Antibacterial activity against Prevotella loescheii by CLSI M11-A6 agar dilution method in presence of beta-lactamase inhibitor Sulbactam
Fusobacterium varium = test: Antibacterial activity against Fusobacterium varium by CLSI M11-A6 agar dilution method in presence of beta-lactamase inhibitor Sulbactam

CC1(C)S[C@@H]2[C@H](NC(=O)[C@H](N)c3ccccc3)C(=O)N2[C@H]1C(=O)O [AMPICILLIN]
MIC [1]: 0.25 µg/mL
MIC50 (Anaerococcus prevotii): 0.25 µg/mL
MIC90 (Anaerococcus prevotii): 0.5 µg/mL
MIC50 (Actinomyces naeslundii): 0.25 µg/mL
MIC90 (Actinomyces naeslundii): 1 µg/mL
MIC50 [2]: 0.25 µg/mL
MIC90 [2]: 0.5 µg/mL
MIC50 [3]: 0.25 µg/mL
MIC90 [3]: 1 µg/mL
MIC50 (Clostridium tertium): 0.25 µg/mL
MIC90 (Clostridium tertium): 1 µg/mL
MIC50 (Clostridium leptum): 0.25 µg/mL
MIC90 (Clostridium leptum): 1 µg/mL
MIC50 (Finegoldia magna): 0.25 µg/mL
MIC90 (Finegoldia magna): 0.5 µg/mL
MIC50 (Bifidobacterium breve): 0.25 µg/mL
MIC90 (Bifidobacterium breve): 1 µg/mL
MIC50 (Phocaeicola vulgatus): 8 µg/mL
MIC90 (Phocaeicola vulgatus): 16 µg/mL
MIC50 (Prevotella corporis): ≤ 0.12 µg/mL
MIC90 (Prevotella corporis): 2 µg/mL
MIC (Clostridioides difficile): 2 µg/mL
MIC50 (Clostridioides difficile): 2 µg/mL
MIC90 (Clostridioides difficile): 4 µg/mL
MIC50 [4]: 0.25 µg/mL
MIC90 [4]: 1 µg/mL
MIC50 (Clostridium beijerinckii): 0.25 µg/mL
MIC90 (Clostridium beijerinckii): 1 µg/mL
MIC50 [5]: ≤ 0.12 µg/mL
MIC90 [5]: 2 µg/mL
MIC50 (Ruminococcus gnavus): ≤ 0.12 µg/mL
MIC90 (Ruminococcus gnavus): 1 µg/mL
MIC50 [6]: 0.25 µg/mL
MIC90 [6]: 1 µg/mL
MIC50 (Clostridium sp.): 0.25 µg/mL
MIC90 (Clostridium sp.): 1 µg/mL
MIC50 [7]: 0.25 µg/mL
MIC90 [7]: 1 µg/mL
MIC50 [8]: 0.5 µg/mL
MIC90 [8]: 0.5 µg/mL
MIC50 (Ruminococcus lactaris): ≤ 0.12 µg/mL
MIC90 (Ruminococcus lactaris): 1 µg/mL
MIC50 (Clostridium glycolicum): 0.25 µg/mL
MIC90 (Clostridium glycolicum): 1 µg/mL
MIC50 (Hoylesella oralis): ≤ 0.12 µg/mL
MIC90 (Hoylesella oralis): 2 µg/mL
MIC50 (Prevotella oris): ≤ 0.12 µg/mL
MIC90 (Prevotella oris): 2 µg/mL
MIC50 (Ruminococcus torques): ≤ 0.12 µg/mL
MIC90 (Ruminococcus torques): 1 µg/mL
MIC50 [9]: 0.25 µg/mL
MIC90 [9]: 1 µg/mL
MIC50 (Thomasclavelia ramosa): ≤ 0.12 µg/mL
MIC90 (Thomasclavelia ramosa): 0.5 µg/mL
MIC50 (Collinsella aerofaciens): 0.25 µg/mL
MIC90 (Collinsella aerofaciens): 1 µg/mL
MIC50 (Clostridium hathewayi): 2 µg/mL
MIC90 (Clostridium hathewayi): 2 µg/mL
MIC50 [10]: 0.25 µg/mL
MIC90 [10]: 1 µg/mL
MIC50 (Bifidobacterium dentium): 0.25 µg/mL
MIC90 (Bifidobacterium dentium): 1 µg/mL
MIC50 [11]: 2 µg/mL
MIC90 [11]: 16 µg/mL
MIC50 (Fusobacterium mortiferum): 2 µg/mL
MIC90 (Fusobacterium mortiferum): 16 µg/mL
MIC50 (Hoylesella loescheii): ≤ 0.12 µg/mL
MIC90 (Hoylesella loescheii): 2 µg/mL
MIC50 (Fusobacterium varium): 2 µg/mL
MIC90 (Fusobacterium varium): 16 µg/mL
